These results are taken from patent US11104676B2 (priority 2018, dated 2021).

The target in assay [1] is His-tagged recombinant human AXL cytoplasmic domain (Homo sapiens (Human), UniProt P30530). Conditions: read-out: AXL enzyme IC50.
Description: (§1) Compounds of Formula I were screened for their ability to inhibit AXL kinase using Invitrogen's LanthaScreen™ Eu Kinase Binding technology. […] After a 60-minute incubation at 22° C., the reaction was measured using a PerkinElmer EnVision multimode plate reader via TR-FRET dual wavelength detection, and the percent of control (POC) was calculated using a ratiometric emission factor. […] The POC values are fit to a 4 parameter logistic curve and the IC50 value is point where the curve crosses 50 POC.
The target of assay [2] is His-tagged recombinant human MER cytoplasmic domain (Homo sapiens (Human), UniProt Q12866). As to conditions: read-out: MER enzyme IC50.
Description: as §1
Assay [3] concerns the target GST-tagged recombinant human TYRO3 kinase domain (Homo sapiens (Human), UniProt Q06418). As to conditions: read-out: TYRO3 enzyme IC50.

Sequence of GST-tagged recombinant human TYRO3 kinase domain (Q06418 518-790): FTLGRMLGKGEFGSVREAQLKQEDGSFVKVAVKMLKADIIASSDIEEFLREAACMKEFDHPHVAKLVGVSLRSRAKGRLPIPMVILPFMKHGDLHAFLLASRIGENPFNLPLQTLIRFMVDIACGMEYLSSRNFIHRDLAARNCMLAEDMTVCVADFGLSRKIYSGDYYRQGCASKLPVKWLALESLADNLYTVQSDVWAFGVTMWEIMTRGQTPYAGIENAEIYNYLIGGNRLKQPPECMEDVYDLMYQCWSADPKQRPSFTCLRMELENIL
Sequence of His-tagged recombinant human MER cytoplasmic domain (Q12866 527-999): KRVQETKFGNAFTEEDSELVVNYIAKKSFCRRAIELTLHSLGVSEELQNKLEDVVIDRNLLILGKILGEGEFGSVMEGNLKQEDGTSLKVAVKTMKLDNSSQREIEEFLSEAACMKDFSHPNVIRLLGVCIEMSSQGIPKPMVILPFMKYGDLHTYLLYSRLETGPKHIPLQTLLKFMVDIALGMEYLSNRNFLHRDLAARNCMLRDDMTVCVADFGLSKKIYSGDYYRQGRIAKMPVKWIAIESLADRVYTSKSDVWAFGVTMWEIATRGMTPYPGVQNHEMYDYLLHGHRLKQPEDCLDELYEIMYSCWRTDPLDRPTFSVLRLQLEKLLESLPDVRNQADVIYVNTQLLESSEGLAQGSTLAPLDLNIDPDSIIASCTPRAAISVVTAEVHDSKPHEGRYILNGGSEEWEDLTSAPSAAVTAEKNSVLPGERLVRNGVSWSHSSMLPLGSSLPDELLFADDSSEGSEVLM
Sequence of His-tagged recombinant human AXL cytoplasmic domain (P30530 473-894): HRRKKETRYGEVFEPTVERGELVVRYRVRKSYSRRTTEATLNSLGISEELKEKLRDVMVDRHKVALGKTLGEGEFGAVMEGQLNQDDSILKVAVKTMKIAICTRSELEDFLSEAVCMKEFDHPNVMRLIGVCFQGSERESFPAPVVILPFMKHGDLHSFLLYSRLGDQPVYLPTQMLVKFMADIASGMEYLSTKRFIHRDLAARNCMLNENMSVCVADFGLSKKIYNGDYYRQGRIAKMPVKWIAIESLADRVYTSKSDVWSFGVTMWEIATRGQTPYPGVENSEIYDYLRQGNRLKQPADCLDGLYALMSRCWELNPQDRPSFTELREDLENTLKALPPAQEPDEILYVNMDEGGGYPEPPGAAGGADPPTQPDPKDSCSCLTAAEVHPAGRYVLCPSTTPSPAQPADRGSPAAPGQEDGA

Take `C[C@H](CO)Nc1n[nH]c2nccc(Oc3ccc(NC(=O)C4CC5(CC5)CN(c5ccc(F)cc5)C4=O)cc3F)c12` (stereo partly drawn) [Example 140, N-(3-fluoro-4-((3-(((R)-1-hydroxypropan-2-yl)amino)-1H-pyrazolo[3,4-b]pyridin-4-yl)oxy)phenyl)-5-(4-fluorophenyl)-6-oxo-5-azaspiro[2.5]octane-7-carboxamide]: the half-inhibitory concentration (IC50) in assay [1] turned out to be 355 nM; in assay [2], 161 nM; in assay [3] it was 1000 nM.
Taken in the same sequence, the figures for `C[C@H](CO)Nc1n[nH]c2nccc(Oc3ccc(NC(=O)C4(C)CCCN(c5ccc(F)cc5)C4=O)cc3F)c12` (stereo partly drawn) [Example 141, N-(3-fluoro-4-((3-(((R)-1-hydroxypropan-2-yl)amino)-1H-pyrazolo[3,4-b]pyridin-4-yl)oxy)phenyl)-1-(4-fluorophenyl)-3-methyl-2-oxopiperidine-3-carboxamide] were 485 nM, 178 nM and 1000 nM.
As to `COC[C@@H](C)Nc1n[nH]c2nccc(Oc3ccc(NC(=O)c4cc(C(C)C)nn(-c5ccc(F)cc5)c4=O)cc3F)c12` [Example 175, (R)-N-(3-fluoro-4-((3-((1-methoxypropan-2-yl)amino)-1H-pyrazolo[3,4-b]pyridin-4-yl)oxy)phenyl)-2-(4-fluorophenyl)-6-isopropyl-3-oxo-2,3-dihydropyridazine-4-carboxamide], the half-maximal inhibitory concentration (IC50) in assay [3] was 292 nM.
Take `COC[C@@H](C)Nc1n[nH]c2nccc(Oc3ccc(NC(=O)c4cc(C(C)C)nn(-c5ccc(F)cc5)c4=O)nc3)c12` [Example 176, (R)-2-(4-fluorophenyl)-6-isopropyl-N-(5-((3-((1-methoxypropan-2-yl)amino)-1H-pyrazolo[3,4-b]pyridin-4-yl)oxy)pyridin-2-yl)-3-oxo-2,3-dihydropyridazine-4-carboxamide]: the half-inhibitory concentration (IC50) in assay [3] stood at 728 nM.
The same measure, in the same setting: with `COC[C@@H](C)Nc1n[nH]c2nccc(Oc3ccc(NC(=O)c4cc(C5CC5)cn(-c5ccc(F)cc5)c4=O)nc3)c12` [Example 177, (R)-5-cyclopropyl-1-(4-fluorophenyl)-N-(5-((3-((1-methoxypropan-2-yl)amino)-1H-pyrazolo[3,4-b]pyridin-4-yl)oxy)pyridin-2-yl)-2-oxo-1,2-dihydropyridine-3-carboxamide] the figure was 106 nM.
In the case of `COC[C@@H](C)Nc1n[nH]c2nccc(Oc3ccc(NC(=O)c4cc(C)cn(-c5ccc(F)cc5)c4=O)nc3)c12` [Example 178, (R)-1-(4-fluorophenyl)-N-(5-((3-((1-methoxypropan-2-yl)amino)-1H-pyrazolo[3,4-b]pyridin-4-yl)oxy)pyridin-2-yl)-5-methyl-2-oxo-1,2-dihydropyridine-3-carboxamide], in assay [3], the half-inhibitory concentration (IC50) was found to be 439 nM.
The same measure, in the same setting: for `CC(C)(O)C1(Nc2n[nH]c3nccc(Oc4ccc(NC(=O)c5ccnn(-c6ccc(F)cc6)c5=O)cc4F)c23)CCCC1` [Example 182, N-(3-fluoro-4-((3-((1-(2-hydroxypropan-2-yl)cyclopentyl)amino)-1H-pyrazolo[3,4-b]pyridin-4-yl)oxy)phenyl)-2-(4-fluorophenyl)-3-oxo-2,3-dihydropyridazine-4-carboxamide] the value was 707 nM.

By IC50 is commonly meant the midpoint of a concentration-inhibition curve.
